≈ marks a conversion by molar mass, not a printed value.
Key:
S. pneumoniae ATCC 51916 = assay: MIC, S. pneumoniae; format: cell-based; conditions: S. pneumoniae
S. aureus ATCC 13709 = assay: MIC, antibacterial potency, S. aureus; format: cell-based; conditions: S. aureus

MIC Spn52 (S. pneumoniae ATCC 51916)	MIC, SA (S. aureus ATCC 13709)	Structure (SMILES)
64 µg/mL (≈ 169 µM)	64 µg/mL (≈ 169 µM)	CCOc1nc(Sc2cc(C(=O)O)ccn2)nc2[nH]c(CC)c(Cl)c12 [700,321]
> 64 µg/mL	> 64 µg/mL	CCc1[nH]c2nc(Sc3nc(C(=O)O)cs3)nc(NC[C@H](C)O)c2c1Cl [700,322]
> 64 µg/mL	> 64 µg/mL	CCc1[nH]c2nc(Sc3nc(C(=O)O)cs3)nc(NCCCn3ccnc3)c2c1Cl [700,323]
64 µg/mL (≈ 164 µM)	> 64 µg/mL	CCOc1nc(Sc2ccc(NC3CC3)nn2)nc2[nH]c(CC)c(Cl)c12 [700,324]
> 64 µg/mL	> 64 µg/mL	CCNc1ccc(Sc2nc(OCC)c3c(Cl)c(CC)[nH]c3n2)nn1 [700,325]
32 µg/mL (≈ 75.7 µM)	> 64 µg/mL	CCOc1nc(Sc2ccc(NCCCOC)nn2)nc2[nH]c(CC)c(Cl)c12 [700,326]
64 µg/mL (≈ 147 µM)	32 µg/mL (≈ 73.6 µM)	CCOc1nc(Sc2ccc(N3CCC(O)CC3)nn2)nc2[nH]c(CC)c(Cl)c12 [700,327]
64 µg/mL (≈ 135 µM)	> 64 µg/mL	CCc1[nH]c2nc(Sc3nc(C(=O)OC)c(Cl)s3)nc(OCC3CCC3)c2c1Cl [700,328]
> 64 µg/mL	8 µg/mL (≈ 22.1 µM)	CCOc1nc(Nc2cccnc2)nc2[nH]c(CC)c(Br)c12 [700,331]
> 64 µg/mL	> 64 µg/mL	CCc1[nH]c2nc(SC)nc(CCC3OCCCO3)c2c1Br [700,332]
> 64 µg/mL	> 64 µg/mL	CCc1[nH]c2nc(SC)nc(CCCNCCN3CCOCC3)c2c1Br [700,334]
> 64 µg/mL	> 64 µg/mL	CCOc1nc(Sc2nc(OC)c3cccnc3n2)nc2[nH]c(CC)c(Cl)c12 [700,339]
> 64 µg/mL	> 64 µg/mL	CCc1[nH]c2nc(Sc3nc(C(=O)O)cs3)nc(N3CC(O)C3)c2c1Cl [700,340]
> 64 µg/mL	> 64 µg/mL	CCOc1nc(Sc2ncc3cccnc3n2)nc2[nH]c(CC)c(Cl)c12 [700,341]
> 64 µg/mL	> 64 µg/mL	CCc1[nH]c2nc(Sc3nc(C(=O)O)cs3)nc(NCCCNS(C)(=O)=O)c2c1Cl [700,342]
2 µg/mL (≈ 4.83 µM)	≤ 0.5 µg/mL	CCc1[nH]c2nc(Sc3cnc4cccnc4n3)nc(N3CC(O)C3)c2c1Cl [700,345]
≤ 0.5 µg/mL	≤ 0.5 µg/mL	CCc1[nH]c2nc(Sc3cnc4cccnc4n3)nc(N3CC(O)C3)c2c1Br [700,346]
8 µg/mL (≈ 21.7 µM)	1 µg/mL (≈ 2.72 µM)	CCOc1nc(Sc2cc(=O)[nH]c(=O)[nH]2)nc2[nH]c(CC)c(Cl)c12 [700,347, 6-(5-chloro-4-ethoxy-6-ethyl-7H-pyrrolo[2,3-d]pyrimidin-2-ylthio)pyrimidine-2,4(1H,3H)-dione]
> 64 µg/mL	> 64 µg/mL	Cc1[nH]c2nc(Sc3cnc4cccnc4n3)nc(N3CC(O)C3)c2c1C [700,351]
> 64 µg/mL	> 64 µg/mL	CCc1[nH]c2nc(Sc3nc4ncccc4c(=O)[nH]3)nc(N3CC(O)C3)c2c1Cl [700,353]

Structure (SMILES)	MIC Spn52 (S. pneumoniae ATCC 51916)	MIC, SA (S. aureus ATCC 13709)
CCc1[nH]c2nc(Sc3nc(C(=O)O)cs3)nc(N3CC(F)(F)C3)c2c1Cl.O=C(O)C(F)(F)F [700,338]	64 µg/mL	8 µg/mL
CCc1[nH]c2nc(Sc3nc(C(=O)O)cs3)nc(NCCCNC(=N)N)c2c1Cl.O=C(O)C(F)(F)F [700,343]	> 64 µg/mL	> 64 µg/mL
CCOc1nc(Nc2nc(C(=O)O)cs2)nc2[nH]c(CC)c(Br)c12.O=C(O)C(F)(F)F [700,350]	64 µg/mL	32 µg/mL
CCOc1nc(Nc2cccc(C(=O)O)c2)nc2[nH]c(CC)c(Br)c12.O=C(O)C(F)(F)F [700,354]	> 64 µg/mL	2 µg/mL
CCc1[nH]c2nc(Sc3nc(-c4nnn[nH]4)cs3)nc(N3CC(O)C3)c2c1Cl.Cl.Cl.Cl.Cl [700,355]	> 64 µg/mL	> 64 µg/mL
CCc1[nH]c2nc(Sc3nc(C(=O)O)cs3)nc(N3CCN(C(C)=O)CC3)c2c1Cl.O=C(O)C(F)(F)F [700,356]	> 64 µg/mL	> 64 µg/mL
CCc1[nH]c2nc(Sc3nc(C(=O)O)cs3)nc(N3CCC(=O)C3)c2c1Cl.O=C(O)C(F)(F)F [700,357]	> 64 µg/mL	> 64 µg/mL
